Results: patent US5840684A, “Glycopeptide antibiotic derivatives” (Eli Lilly and Company, priority 1995, dated 1998)
Values after ≈ are worked out from the molar mass of the structure shown.

Experiments:
[1] = tested on: Staphylococcus aureus SA1199B; format: cell-based
Procedure: (§1) The MIC's were determined using a standard broth micro-dilution assay.

[2] = tested on: Entercoccus faecium 180-1; assay: broth micro-dilution MIC; format: cell-based
Procedure: as §1

[3] = tested on: Staphylococcus aureus SA1199; assay: broth micro-dilution MIC; format: cell-based
Procedure: as §1

[4] = tested on: Staphylococcus aureus 447; assay: broth micro-dilution MIC; format: cell-based
Procedure: as §1

[5] = tested on: Streptococcus pyogenes C203; assay: broth micro-dilution MIC; format: cell-based
Procedure: as §1

[6] = tested on: Staphylococcus aureus 491; assay: broth micro-dilution MIC; format: cell-based
Procedure: as §1

Entercoccus faecium 276 = assay: broth micro-dilution MIC; format: cell-based
Procedure: as §1

[7] = tested on: Staphylococcus aureus SA1199A; assay: broth micro-dilution MIC; format: cell-based
Procedure: as §1

[8] = tested on: Staphylococcus aureus 446; assay: broth micro-dilution MIC; format: cell-based
Procedure: as §1

[9] = tested on: vancomycin-susceptible enterococci; assay: broth micro-dilution, mean geometric MIC; format: cell-based, Enterococcus faecium and Enterococcus faecalis; settings: enterococci, 24-hour incubation
[10] = tested on: Staphylococcus haemolyticus 105; assay: broth micro-dilution MIC; format: cell-based
Procedure: (§2) The formula I compounds have in vitro and in vivo activity against Gram-positive pathogenic bacteria. The MIC's were determined using a standard broth micro-dilution assay.

[11] = tested on: Staphylococcus epidermidis 270; assay: broth micro-dilution MIC; format: cell-based
Procedure: as §2

[12] = tested on: Streptococcus pneumoniae P1; assay: broth micro-dilution MIC; format: cell-based
Procedure: as §2

Entercoccus faecium 2041 = assay: broth micro-dilution MIC; format: cell-based; settings: Entercoccus faecium 2041
Procedure: as §2

[13] = tested on: Enterococcus gallinarum 245; assay: broth micro-dilution MIC; format: cell-based; settings: Enterococcus gallinarum 245
Procedure: as §2

Entercoccus faecium 180 = assay: broth micro-dilution MIC; format: cell-based; settings: Entercoccus faecium 180
Procedure: as §2

[14] = tested on: Staphylococcus haemolyticus 415; assay: broth micro-dilution MIC; format: cell-based
Procedure: as §2

[15] = tested on: vancomycin-resistant enterococci; assay: broth micro-dilution, mean geometric MIC; format: cell-based, Enterococcus faecium and Enterococcus faecalis; settings: enterococci, 24-hour incubation
[16] = tested on: Staphylococcus aureus S13E; format: cell-based
Procedure: as §1

[17] = tested on: Staphylococcus aureus X778; assay: broth micro-dilution MIC; format: cell-based
Procedure: as §1

[18] = tested on: Staphylococcus aureus X400; assay: broth micro-dilution MIC; format: cell-based
Procedure: as §1

| Structure (SMILES) | MIC [1] [µg/mL] | MIC [2] [µg/mL] | MIC [3] [µg/mL] | MIC [4] [µg/mL] | MIC [5] [µg/mL] | MIC [6] [µg/mL] | MIC [7] [µg/mL] | MIC [8] [µg/mL] | mean geometric MIC, Vancomycin Sensitive Strains [9] [µg/mL] | MIC [10] [µg/mL] | MIC [11] [µg/mL] | MIC [12] [µg/mL] | MIC (Entercoccus faecium 2041) [µg/mL] | MIC [13] [µg/mL] | MIC (Entercoccus faecium 180) [µg/mL] | MIC [14] [µg/mL] | mean geometric MIC, Vancomycin Resistant Strains [15] [µg/mL] | MIC [16] [µg/mL] | MIC [17] [µg/mL] | MIC [18] [µg/mL] | further results |
| --- | --- | --- | --- | --- | --- | --- | --- | --- | --- | --- | --- | --- | --- | --- | --- | --- | --- | --- | --- | --- | --- |
| CNC(CC(C)C)C(=O)NC1C(=O)NC(CC(N)=O)C(=O)NC2C(=O)NC3C(=O)NC(C(=O)NC(C(=O)O)c4cc(O)cc(O)c4-c4cc3ccc4O)C(OC3CC(C)(N)C(O)C(C)O3)c3ccc(c(Cl)c3)Oc3cc2cc(c3OC2OC(CO)C(O)C(O)C2OC2CC(C)(NCc3cc(C)cc(C)c3)C(O)C(C)O2)Oc2ccc(cc2Cl)C1O (stereo not shown) [Compound 89] | 1 (≈ 0.585 µM) | ≤ 0.06 | 0.5 (≈ 0.292 µM) | 1 (≈ 0.585 µM) | ≤ 0.06 | 1 (≈ 0.585 µM) | ≤ 0.06 | 0.5 (≈ 0.292 µM) | 0.44 | 1 (≈ 0.585 µM) | 1 (≈ 0.585 µM) | ≤ 0.06 | ≤ 0.06 | ≤ 0.06 | 0.125 (≈ 0.0731 µM) | 2 (≈ 1.17 µM) | 11 |  |  |  | MIC (Entercoccus faecium 276): ≤ 0.06 µg/mL |
| CNC(CC(C)C)C(=O)NC1C(=O)NC(CC(N)=O)C(=O)NC2C(=O)NC3C(=O)NC(C(=O)NC(C(=O)O)c4cc(O)cc(O)c4-c4cc3ccc4O)C(OC3CC(C)(N)C(O)C(C)O3)c3ccc(c(Cl)c3)Oc3cc2cc(c3OC2OC(CO)C(O)C(O)C2OC2CC(C)(NCc3ccc(OC(C)=O)c(OC)c3)C(O)C(C)O2)Oc2ccc(cc2Cl)C1O (stereo not shown) [Compound 99] | 0.5 (≈ 0.282 µM) | ≤ 0.06 | 0.5 (≈ 0.282 µM) | 2 (≈ 1.13 µM) |  | 1 (≈ 0.565 µM) | 0.5 (≈ 0.282 µM) | 0.5 (≈ 0.282 µM) | 0.76 | 8 (≈ 4.52 µM) | 1 (≈ 0.565 µM) |  |  | 32 (≈ 18.1 µM) |  | 32 (≈ 18.1 µM) | 72 | 0.5 (≈ 0.282 µM) | 0.5 (≈ 0.282 µM) |  |  |
| CNC(CC(C)C)C(=O)NC1C(=O)NC(CC(N)=O)C(=O)NC2C(=O)NC3C(=O)NC(C(=O)NC(C(=O)O)c4cc(O)cc(O)c4-c4cc3ccc4O)C(OC3CC(C)(N)C(O)C(C)O3)c3ccc(c(Cl)c3)Oc3cc2cc(c3OC2OC(CO)C(O)C(O)C2OC2CC(C)(NCc3ccc(N4CCOCC4)cc3)C(O)C(C)O2)Oc2ccc(cc2Cl)C1O (stereo not shown) [Compound 147] | ≤ 0.06 | 2 (≈ 1.13 µM) | 0.5 (≈ 0.283 µM) |  | ≤ 0.06 | ≤ 0.06 | ≤ 0.06 | 0.5 (≈ 0.283 µM) | 1.3 | 1 (≈ 0.566 µM) |  | ≤ 0.06 | ≤ 0.06 |  | 2 (≈ 1.13 µM) | 8 (≈ 4.53 µM) |  | 1 (≈ 0.566 µM) |  | 4 (≈ 2.26 µM) |  |
| CNC(CC(C)C)C(=O)NC1C(=O)NC(CC(N)=O)C(=O)NC2C(=O)NC3C(=O)NC(C(=O)NC(C(=O)O)c4cc(O)cc(O)c4-c4cc3ccc4O)C(OC3CC(C)(N)C(O)C(C)O3)c3ccc(c(Cl)c3)Oc3cc2cc(c3OC2OC(CO)C(O)C(O)C2OC2CC(C)(NCc3ccc4c(c3)CCCC4)C(O)C(C)O2)Oc2ccc(cc2Cl)C1O (stereo not shown) [Compound 168] | 1 (≈ 0.576 µM) | ≤ 0.06 | 0.5 (≈ 0.288 µM) | ≤ 0.06 | ≤ 0.06 | 0.5 (≈ 0.288 µM) | ≤ 0.06 | ≤ 0.06 | 0.10 | 0.5 (≈ 0.288 µM) |  | ≤ 0.06 | ≤ 0.06 | 2 (≈ 1.15 µM) | 0.25 (≈ 0.144 µM) | 2 (≈ 1.15 µM) | 3.4 | ≤ 0.06 | 0.5 (≈ 0.288 µM) | ≤ 0.06 |  |
